Assay results: publication PMC9961069 (Metabolites, 2023)

Tests used:
MCF-7 cells = experiment: Resazurin viability assay with or without folinic acid, MCF-7; format: cell-based, Human; conditions: 72 h
Experimental: (§1) The incorporation and metabolism of resazurin to resorufin was used to monitor cell viability. MDA-MB-468, MCF7, and MDA-MB-231 cells were grown in 96-well plates with a total of 5000 cells per well in a total volume of 180 μL for 24 h, as described above. After 24 h of growth, cells were treated with increasing concentrations of compounds (0.0457–100 μM) for 72 h. A vehicle control was also performed. […] The volume of treatment added to each well was 20 μL. For folinic acid rescue experiments, 5000 cells were treated with 10 μM compound with or without 300 μg/mL folinic acid (Supelco). After 72 h of treatment, resazurin was added to a final concentration of 44 μM, and cells were incubated for an additional 4 h at 37 °C. The fluorescence of resorufin was monitored on a Synergy MX microplate reader (BioTek) using an excitation wavelength of 540 nm and an emission wavelength of 600 nm. Percent viability relative to the DMSO control was determined. Each treatment was performed in triplicate, and each individual experiment was repeated three times (n = 3).

MDA-MB-231 cells = experiment: Resazurin viability assay with or without folinic acid, MDA-MB-231; format: cell-based, Human; conditions: 72 h
Experimental: as §1

CC1(C)N=C(N)N=C(N)N1c1ccc(CCCCc2ccc(S(=O)(=O)F)cc2)c(Cl)c1 [compound 127159]
Relative Viability (%) – Inhibitor + FA Treatment (MCF-7 cells; MCF-7, 10 μM + 300 μg/mL folinic acid): 99.99 ± 3.2% | Relative Viability (%) – Inhibitor Alone (MCF-7 cells; MCF-7, 10 μM, relative to DMSO): 67.68 ± 13.3% | Relative Viability (%) – Inhibitor + FA Treatment (MDA-MB-231 cells; MDA-MB-231, 10 μM + 300 μg/mL folinic acid): 106.42 ± 15.0% | Rescue of viability impairment by folinic acid (MDA-MB-231 cells; MDA-MB-231, 10 μM ± 300 μg/mL FA): largest amplitude of rescue | Relative Viability (%) – Inhibitor Alone (MDA-MB-231 cells; MDA-MB-231, 10 μM, relative to DMSO): 50.08 ± 8.8%
